Reference: patent US20220146526A1, “METHOD FOR EVALUATING SAMPLE, ANALYSIS METHOD, METHOD FOR DETECTING DEGRADED SAMPLE, MARKER FOR DETECTING DEGRADED BLOOD PLASMA SAMPLE, AND MARKER FOR DETECTING DEGRADED SERUM SAMPLE” (SHIMADZU CORPORATION, priority 2019, published 2022)

How the values were obtained:
Type in all cases: physicochemical, human
[1] = LC/MS of serum sample: number of times of freezing and thawing (Table M); design: key to Rate of increase or decrease: detection intensity relative to 1 at 2 freeze-thaw cycles; details: for Number of times when compound is affected / Increase or decrease: serum sample, LC/MS; for Number of times when compound is affected: detection intensity changed by 30% or more vs 2 times of freezing and thawing; for Increase or decrease: detection intensity vs 2 times of freezing and thawing
Method: (§1) After standing, the blood sample was subjected to centrifugation under a condition of room temperature, 3500 rpm, and 5 minutes. […] After centrifugation, the blood-collecting vessel was left to stand at room temperature, and the serum was isolated during this time. Here, in order to investigate how the detection intensity of molecules contained in the sample was affected in cases where the time during which the blood-collecting vessel was left at room temperature was set to 1 hour and 6 hours as compared to that in a case where the time was set to 30 minutes, preparations were performed under the respective conditions of 30 minutes, 1 hour, and 6 hours. The obtained serum sample was frozen and stored. Here, in order to investigate how the detection intensity of molecules contained in the sample was affected in cases where freezing and thawing was performed 4 times, 6 times, and 10 times after freezing as compared to that in a case where freezing and thawing was performed 2 times after freezing, freezing and thawing was performed under the respective conditions of 2, 4, 6, and 10 times.
(§2) Frozen blood plasma samples and serum samples were subjected to GC/MS or LC/MS. In GC/MS, the blood plasma samples and serum samples were subjected to methoxymation and trimethylsilylation and then introduced to GC-MS.
Analysis column: Discovery HS F5-3 (inner diameter of 2.1 mm, length of 150 mm, film thickness of 3 μm) (Sigma-Aldrich)
Column temperature: 40° C.
(A) 0.1% formic acid (dissolved in water)
(B) 0.1% formic acid (dissolved in acetonitrile)
Flow velocity: 0.25 mL/min
Ionization method: electrospray
Temperature: • Desolvation Line (DL) temperature: 250° C. • Heat block temperature: 400° C. • Interface temperature: 300° C.
Gas flow rate: • Nebulizer gas flow rate: 3.0 L/min • Drying gas flow rate: 10.0 L/min • Heating gas flow rate: 10.0 L/min
(§3) Mode: multiple reaction monitoring (MRM)
The rate of increase or decrease in Table M is the value of detection intensity relative to 1 that is the detection intensity in a case where the number of times of freezing and thawing is set to 2 times.

[2] = GC/MS of serum sample: number of times of freezing and thawing (Table I); design: key to Rate of increase or decrease / Rate of increase or decrease (first value, increase): detection intensity relative to 2 freeze-thaw cycles = 1; details: for Number of times when compound is affected: detection intensity changed by 30% or more vs 2 times of freezing and thawing; for Rate of increase or decrease: detection intensity relative to 1 at 2 times
Method: as §1, §2
(§4) GC/MS was conducted using GCMS·TQ8040 (Shimadzu Corporation) that was a GC·MS equipped with AOC·20i (Shimadzu Corporation) as an autosampler.
(§5) Column: BPX5 (inner diameter of 0.25 mm, length of 30 m, and film thickness of 0.25 μm) (SGE)
(§6) Column temperature: maintained at 60° C. for 2 minutes, then raised at 15° C./min, and maintained at 330° C. for 3 minutes.
(§7) Inlet temperature: 250° C.
(§8) Carrier gas control mode: constant linear velocity of 39.0 cm/sec
(§9) Sample introduction method: split (split ratio of 30:1) Injection volume: 1 μL
(§10) Ionization method: electron ionization
(§11) Ionization current: 60 μA
(§12) Interface temperature: 280° C.
(§13) Ion source temperature: 200° C.
as §3
The rate of increase or decrease in Table I is the value of detection intensity relative to 1 that is the detection intensity in a case where the number of times of freezing and thawing is set to 2 times.

[3] = GC/MS of serum sample: time from centrifugation to isolation (Table H); design: key to Rate of increase or decrease / Rate of increase or decrease (first value, increase): detection intensity relative to 1 at 30 min centrifugation-to-isolation; details: for Increase or decrease: detection intensity; for Rate of increase or decrease: detection intensity relative to 1 at 30 minutes
Method: as §1, §2, §4, §5, §6, §7, §8, §9, §10, §11, §12, §13, §3
The rate of increase or decrease in Table H is the value of detection intensity relative to 1 that is the detection intensity in a case where the time from centrifugation to isolation is set to 30 minutes.

[4] = GC/MS of serum sample: time from blood collection to centrifugation (Table G); details: blood collection to centrifugation; for Rate of increase or decrease: detection intensity relative to 1 at 15 minutes; for Increase or decrease: detection intensity
Method: as §1, §2, §4, §5, §6, §7, §8, §9, §10, §11, §12, §13, §3
The rate of increase or decrease in Table G is the value of detection intensity relative to 1 that is the detection intensity in a case where the time from blood collection to centrifugation is set to 15 minutes.

[5] = serum sample, GC/MS, detection intensity vs 2 times of freezing and thawing
[6] = serum, GC/MS, freezing and thawing 4 times
[7] = detection intensity, serum, GC/MS, freezing and thawing 4 times vs 2 times
[8] = 10 times of freezing and thawing
[9] = 10 times of freezing and thawing, detection intensity relative to 1 at 2 times

What does the source list for `C[C@@H](O)[C@H](N)C(=O)O` [Threonine, threonine]?
Rate of increase or decrease ([1]; 6 times of freezing and thawing, relative to 1 at 2 times, different from individual to individual, first value (increase)): 1.31; Rate of increase or decrease ([1]; 6 times of freezing and thawing, relative to 1 at 2 times, different from individual to individual, second value (decrease)): 0.69; Number of times when compound is affected [1]: 6 times; Increase or decrease [1]: Different from individual

With `CNCC(=O)O` [Sarcosine, sarcosine] as the compound, how does the “Number of times when compound is affected” value (from here on “Number of times”) ([2]; serum sample, GC/MS) read?
Its value is 10 times.

What about the Increase or decrease [2, 5] of the same compound?
Its Increase or decrease is “Increase”.

For `O=C(O)CCO` [3-Hydroxypropionic acid], which Increase or decrease ([3]; after 6 hours vs 30 minutes) is on record?
The Increase or decrease was “Different from individual”.

And the “Rate of increase or decrease (second value, decrease)” value ([3]; different from individual to individual, individuals with decrease, relative to 1 at 30 minutes, after 6 hours)?
The value was 0.65.

What about the “Rate of increase or decrease (first value, increase)” value ([3]; different from individual to individual, individuals with increase, relative to 1 at 30 minutes, after 6 hours) of the same compound?
Its value is 1.91.

And the “Rate of increase or decrease” value [2, 6]?
The value was 0.55.

And the Increase or decrease [2, 7]?
Its Increase or decrease is “Decrease”.

Which “Rate of increase or decrease” value [2, 6] does the source give for `CCCCCCCC/C=C\CCCCCCCC(N)=O` [Oleamide] here?
Its value is 2.08.

And the Increase or decrease [2, 7]?
Its Increase or decrease is “Increase”.

With `CC(=O)N[C@@H](CCC(N)=O)C(=O)O` [N-acetylglutamine] as the compound, how does the “Rate of increase or decrease” value ([3]; after 6 hours) read?
The value was 1.58.

And the Increase or decrease ([3]; after 6 hours vs 30 minutes)?
The Increase or decrease was “Increase”.

What about the “Rate of increase or decrease” value [2, 8] of the same compound?
Its value is 2.17.

What about the “Number of times” value ([2]; serum sample, GC/MS) of the same compound?
The value was 10 times.

And the Increase or decrease [2, 5]?
Its Increase or decrease is “Increase”.

Which “Rate of increase or decrease” value ([3]; after 1 hour) does the source give for `O=C(O)c1ccc(CO)o1` [5-Hydroxymethyl-2-furancarboxylic acid] here?
Its value is 1.71.

And the Increase or decrease ([3]; after 1 hour vs 30 minutes)?
Its Increase or decrease is “Increase”.

For `CCCCCCCCCC(=O)O` [Decanoic acid], which “Rate of increase or decrease” value ([4]; after 8 hours) is on record?
Its value is 0.69.

What about the Increase or decrease ([4]; after 8 hours vs 15 minutes) of the same compound?
The Increase or decrease was “Decrease”.

With `OC[C@@H](O)[C@H](O)[C@@H](O)CO` [Xylitol] as the compound, how does the “Rate of increase or decrease” value ([4]; after 8 hours) read?
The value was 0.62.

What about the Increase or decrease ([4]; after 8 hours vs 15 minutes) of the same compound?
Its Increase or decrease is “Decrease”.

Which results are given for `O=C(CO)[C@@H](O)[C@H](O)CO` [Xylulose]?
Rate of increase or decrease ([3]; after 6 hours): 2.48; Increase or decrease ([3]; after 6 hours vs 30 minutes): Increase; Rate of increase or decrease ([4]; after 8 hours): 1.95; Increase or decrease ([4]; after 8 hours vs 15 minutes): Increase

Which “Rate of increase or decrease” value ([3]; after 6 hours) does the source give for `O=C(O)C(=O)Cc1ccccc1` [Phenylpyruvic acid] here?
The value was 1.45.

And the Increase or decrease ([3]; after 6 hours vs 30 minutes)?
Its Increase or decrease is “Increase”.

What about the “Rate of increase or decrease” value [2, 8] of the same compound?
The value was 2.06.

And the “Number of times” value ([2]; serum sample, GC/MS)?
The value was 10 times.

What about the Increase or decrease [2, 5] of the same compound?
Its Increase or decrease is “Increase”.

For `Cc1ncc(CO)c(CN)c1O` [Pyridoxamine], which “Rate of increase or decrease” value [2, 8] is on record?
Its value is 0.61.

And the “Number of times” value ([2]; serum sample, GC/MS)?
Its value is 10 times.

What about the Increase or decrease [2, 5] of the same compound?
The Increase or decrease was “Decrease”.

What about the “Rate of increase or decrease” value ([4]; after 4 hours) of the same compound?
Its value is 1.52.

What about the Increase or decrease ([4]; after 4 hours vs 15 minutes) of the same compound?
The Increase or decrease was “Increase”.

For `O=C(O)CCCC(=O)O` [Glutaric acid], which “Rate of increase or decrease” value ([4]; after 8 hours) is on record?
The value was 1.39.

And the Increase or decrease ([4]; after 8 hours vs 15 minutes)?
Its Increase or decrease is “Increase”.

What does the source list for `CC(C)[C@H](N)C(=O)O` [Valine, valine]?
Rate of increase or decrease [1, 9]: 0.56; Number of times when compound is affected [1]: 10 times; Increase or decrease [1]: Decrease

Which “Rate of increase or decrease” value ([4]; after 8 hours) does the source give for `NCCC(=O)O` [3-Aminopropionic acid (β-alanine), 3-Aminopropionic acid] here?
Its value is 1.46.

And the Increase or decrease ([4]; after 8 hours vs 15 minutes)?
Its Increase or decrease is “Increase”.

For `N[C@@H](Cc1ccc(O)cc1)C(=O)O` [Tyrosine, tyrosine], which “Rate of increase or decrease” value ([1]; 6 times of freezing and thawing, detection intensity relative to 1 at 2 times) is on record?
Its value is 0.60.

What about the “Number of times” value [1] of the same compound?
The value was 6 times.

And the Increase or decrease [1]?
Its Increase or decrease is “Decrease”.

With `OC[C@@H](O)[C@@H](O)[C@H](O)[C@@H](O)CO` [Sorbitol] as the compound, how does the “Rate of increase or decrease” value [2, 8] read?
The value was 0.61.

What about the “Number of times” value ([2]; serum sample, GC/MS) of the same compound?
Its value is 10 times.

What about the Increase or decrease [2, 5] of the same compound?
The Increase or decrease was “Decrease”.

What about the “Rate of increase or decrease” value ([4]; after 8 hours) of the same compound?
The value was 1.54.

What about the Increase or decrease ([4]; after 8 hours vs 15 minutes) of the same compound?
The Increase or decrease was “Increase”.

Which “Rate of increase or decrease” value [1, 9] does the source give for `N[C@@H](Cc1ccccc1)C(=O)O` [Phenylalanine, phenylalanine] here?
Its value is 0.57.

What about the “Number of times” value [1] of the same compound?
The value was 10 times.

And the Increase or decrease [1]?
The Increase or decrease was “Decrease”.
